# In patent publication US20100267561A1, “HERBICIDAL PYRIDAZINONE DERIVATIVES” (priority 2007, published 2010):
# Assays:
# Format in all cases: in vivo
# [1] = system: wheat (Triticum aestivum); experiment: Test A pre-/postemergence plant response
# From the text: (§1) Seeds of species selected from barnyardgrass (Echinochloa crus-galli), large crabgrass (Digitaria sanguinalis), giant foxtail (Setaria faberi), blackgrass (Alopecurus myosuroides), canarygrass (Phalaris minor), morningglory (Ipomoea coccinea), pigweed (Amaranthus retroflexus), velvetleaf (Abutilon theophrasti), wheat (Triticum aestivum), and corn (Zea mays) were planted into a blend of loam soil and sand and treated preemergence with a directed soil spray using test chemicals formulated in a non-phytotoxic solvent mixture which included a surfactant. At the same time these species were also treated with postemergence applications of test chemicals formulated in the same manner.
# (§2) Plants ranged in height from 2 to 10 cm and were in the one- to two-leaf stage for the postemergence treatment. Treated plants and untreated controls were maintained in a greenhouse for approximately 10 days, after which time all treated plants were compared to untreated controls and visually evaluated for injury. Plant response ratings, summarized in Table A, are based on a 0 to 100 scale where 0 is no effect and 100 is complete control. A dash (-) response means no test results.
# [2] = system: velvetleaf (Abutilon theophrasti); experiment: Test A pre-/postemergence plant response
# From the text: as §1, §2
# [3] = system: large crabgrass (Digitaria sanguinalis); experiment: Test A pre-/postemergence plant response
# From the text: as §1, §2
# [4] = system: barnyardgrass (Echinochloa crus-galli); experiment: Test A pre-/postemergence plant response
# From the text: as §1, §2
# [5] = system: morningglory (Ipomoea coccinea); experiment: Test A pre-/postemergence plant response
# From the text: as §1, §2
# corn (Zea mays) = experiment: Test A pre-/postemergence plant response
# From the text: as §1, §2
# [6] = system: pigweed (Amaranthus retroflexus); experiment: Test A pre-/postemergence plant response
# From the text: as §1, §2
# [7] = system: giant foxtail (Setaria faberi); experiment: Test A pre-/postemergence plant response
# From the text: as §1, §2
# rice (Oryza sativa) = experiment: Test B flooded paddy test plant response
# From the text: (§3) Plant species in the flooded paddy test consisted of rice (Oryza sativa), umbrella sedge (Cyperus difformis), ducksalad (Heteranthera limosa) and barnyardgrass (Echinochloa crus-galli) grown to the 2-leaf stage for testing. At time of treatment, test pots were flooded to 3 cm above the soil surface, treated by application of test compounds directly to the paddy water, and then maintained at that water depth for the duration of the test. Treated plants and controls were maintained in a greenhouse for 13 to 15 days, after which time all species were compared to controls and visually evaluated. Plant response ratings, summarized in Table B, are based on a scale of 0 to 100 where 0 is no effect and 100 is complete control. A dash (-) response means no test result.
# [8] = system: umbrella sedge (Cyperus difformis); experiment: Test B flooded paddy test plant response
# From the text: as §3
# [9] = system: ducksalad (Heteranthera limosa); experiment: Test B flooded paddy test plant response
# From the text: as §3
# [10] = system: barnyardgrass (Echinochloa crus-galli); experiment: Test B flooded paddy test plant response
# From the text: as §3
# [11] = Postemergence, 31 g ai/ha, 0 to 100 scale (0 no effect, 100 complete control)
# [12] = Postemergence, 125 g ai/ha, 0 to 100 scale, 0 no effect, 100 complete control
# [13] = Preemergence, 31 g ai/ha, 0 to 100 scale, 0 is no effect, 100 is complete control
# [14] = Preemergence, 125 g ai/ha, 0 to 100 scale (0 no effect, 100 complete control)
# [15] = Postemergence, 500 g ai/ha, 0 to 100 scale, 0 no effect, 100 complete control
# [16] = Preemergence, 500 g ai/ha, 0 to 100 scale (0 no effect, 100 complete control)
# [17] = Flood (flooded paddy test), 62 g ai/ha, scale 0 to 100, 0 no effect, 100 complete control
# [18] = Flood (flooded paddy test), 125 g ai/ha, scale 0 to 100, 0 no effect, 100 complete control
# [19] = Flood (flooded paddy test), 250 g ai/ha, scale 0 to 100, 0 no effect, 100 complete control
# [20] = Flood, 31 g ai/ha, scale 0 to 100
# [21] = Postemergence, 62 g ai/ha, 0 to 100 scale, 0 no effect, 100 complete control
# [22] = Postemergence, 250 g ai/ha, 0 to 100 scale, 0 no effect, 100 complete control
# [23] = Preemergence, 62 g ai/ha, 0 to 100 scale, 0 no effect, 100 complete control
# [24] = Preemergence, 250 g ai/ha, 0 to 100 scale (0 no effect, 100 complete control)
structure (smiles),measurement,setting,value
Cn1ncc(O)c(-c2nn(-c3ccc(C(F)(F)F)cn3)cc2Br)c1=O [Compound 71],"Plant response rating, Wheat",[1]; [11],0
same,"Plant response rating, Wheat",[1]; [12],80
same,"Plant response rating, Wheat",[1]; [13],0
same,"Plant response rating, Wheat",[1]; [14],50
same,"Plant response rating, Velvetleaf",[2]; [11],0
same,"Plant response rating, Velvetleaf",[2]; [12],0
same,"Plant response rating, Velvetleaf",[2]; [13],0
same,"Plant response rating, Velvetleaf",[2]; [14],0
same,"Plant response rating, Crabgrass, Large",[3]; [11],20
same,"Plant response rating, Crabgrass, Large",[3]; [12],80
same,"Plant response rating, Crabgrass, Large",[3]; [13],10
same,"Plant response rating, Crabgrass, Large",[3]; [14],60
same,"Plant response rating, Barnyardgrass",[4]; [11],10
same,"Plant response rating, Barnyardgrass",[4]; [12],90
same,"Plant response rating, Barnyardgrass",[4]; [13],0
same,"Plant response rating, Barnyardgrass",[4]; [14],40
same,"Plant response rating, Morningglory",[5]; [11],0
same,"Plant response rating, Morningglory",[5]; [12],0
same,"Plant response rating, Morningglory",[5]; [13],0
same,"Plant response rating, Morningglory",[5]; [14],0
same,"Plant response rating, Corn",corn (Zea mays); [11],0
same,"Plant response rating, Corn",corn (Zea mays); [12],40
same,"Plant response rating, Corn",corn (Zea mays); [13],0
same,"Plant response rating, Corn",corn (Zea mays); [14],20
same,"Plant response rating, Pigweed",[6]; [11],0
same,"Plant response rating, Pigweed",[6]; [12],0
same,"Plant response rating, Pigweed",[6]; [13],0
same,"Plant response rating, Pigweed",[6]; [14],0
same,"Plant response rating, Foxtail, Giant",[7]; [11],30
same,"Plant response rating, Foxtail, Giant",[7]; [12],90
same,"Plant response rating, Foxtail, Giant",[7]; [13],0
same,"Plant response rating, Foxtail, Giant",[7]; [14],100
Cc1nc(-c2ccc(C(F)(F)F)cc2)sc1-c1c(O)cnn(C)c1=O [Compound 24],"Plant response rating, Wheat",[1]; [12],0
same,"Plant response rating, Wheat",[1]; [15],20
same,"Plant response rating, Wheat",[1]; [14],0
same,"Plant response rating, Wheat",[1]; [16],0
same,"Plant response rating, Velvetleaf",[2]; [12],0
same,"Plant response rating, Velvetleaf",[2]; [15],0
same,"Plant response rating, Velvetleaf",[2]; [14],0
same,"Plant response rating, Velvetleaf",[2]; [16],0
same,"Plant response rating, Crabgrass, Large",[3]; [12],0
same,"Plant response rating, Crabgrass, Large",[3]; [15],10
same,"Plant response rating, Crabgrass, Large",[3]; [14],0
same,"Plant response rating, Crabgrass, Large",[3]; [16],60
same,"Plant response rating, Barnyardgrass",[4]; [12],0
same,"Plant response rating, Barnyardgrass",[4]; [15],10
same,"Plant response rating, Barnyardgrass",[4]; [14],0
same,"Plant response rating, Barnyardgrass",[4]; [16],30
same,"Plant response rating, Morningglory",[5]; [12],0
same,"Plant response rating, Morningglory",[5]; [15],0
same,"Plant response rating, Morningglory",[5]; [14],0
same,"Plant response rating, Morningglory",[5]; [16],0
same,"Plant response rating, Corn",corn (Zea mays); [12],0
same,"Plant response rating, Corn",corn (Zea mays); [15],20
same,"Plant response rating, Corn",corn (Zea mays); [14],0
same,"Plant response rating, Corn",corn (Zea mays); [16],0
same,"Plant response rating, Pigweed",[6]; [12],0
same,"Plant response rating, Pigweed",[6]; [15],0
same,"Plant response rating, Pigweed",[6]; [14],0
same,"Plant response rating, Pigweed",[6]; [16],0
same,"Plant response rating, Foxtail, Giant",[7]; [12],0
same,"Plant response rating, Foxtail, Giant",[7]; [15],40
same,"Plant response rating, Foxtail, Giant",[7]; [14],0
same,"Plant response rating, Foxtail, Giant",[7]; [16],80
Cc1cc(-c2ccc(OC(F)(F)F)cc2)nn1-c1c(OC(=O)OC(C)C)cnn(C)c1=O [Compound 13],"Plant response rating, Wheat",[1]; [12],50
same,"Plant response rating, Wheat",[1]; [15],60
same,"Plant response rating, Wheat",[1]; [14],20
same,"Plant response rating, Wheat",[1]; [16],70
same,"Plant response rating, Velvetleaf",[2]; [12],0
same,"Plant response rating, Velvetleaf",[2]; [15],0
same,"Plant response rating, Velvetleaf",[2]; [14],0
same,"Plant response rating, Velvetleaf",[2]; [16],20
same,"Plant response rating, Crabgrass, Large",[3]; [12],20
same,"Plant response rating, Crabgrass, Large",[3]; [15],80
same,"Plant response rating, Crabgrass, Large",[3]; [14],60
same,"Plant response rating, Crabgrass, Large",[3]; [16],90
same,"Plant response rating, Barnyardgrass",[4]; [12],50
same,"Plant response rating, Barnyardgrass",[4]; [15],90
same,"Plant response rating, Barnyardgrass",[4]; [14],60
same,"Plant response rating, Barnyardgrass",[4]; [16],100
same,"Plant response rating, Morningglory",[5]; [12],0
same,"Plant response rating, Morningglory",[5]; [15],0
same,"Plant response rating, Morningglory",[5]; [14],0
same,"Plant response rating, Morningglory",[5]; [16],0
same,"Plant response rating, Corn",corn (Zea mays); [12],30
same,"Plant response rating, Corn",corn (Zea mays); [15],60
same,"Plant response rating, Corn",corn (Zea mays); [14],20
same,"Plant response rating, Corn",corn (Zea mays); [16],70
same,"Plant response rating, Pigweed",[6]; [12],0
same,"Plant response rating, Pigweed",[6]; [15],0
same,"Plant response rating, Pigweed",[6]; [14],0
same,"Plant response rating, Pigweed",[6]; [16],0
same,"Plant response rating, Foxtail, Giant",[7]; [12],70
same,"Plant response rating, Foxtail, Giant",[7]; [15],80
same,"Plant response rating, Foxtail, Giant",[7]; [14],70
same,"Plant response rating, Foxtail, Giant",[7]; [16],100
same,"Plant response rating, Rice",rice (Oryza sativa); [17],0
same,"Plant response rating, Rice",rice (Oryza sativa); [18],0
same,"Plant response rating, Rice",rice (Oryza sativa); [19],0
same,"Plant response rating, Rice",rice (Oryza sativa); [20],0
same,"Plant response rating, Sedge, Umbrella",[8]; [17],0
same,"Plant response rating, Sedge, Umbrella",[8]; [18],0
same,"Plant response rating, Sedge, Umbrella",[8]; [19],0
same,"Plant response rating, Sedge, Umbrella",[8]; [20],0
same,"Plant response rating, Ducksalad",[9]; [17],0
same,"Plant response rating, Ducksalad",[9]; [18],0
same,"Plant response rating, Ducksalad",[9]; [19],0
same,"Plant response rating, Ducksalad",[9]; [20],0
same,"Plant response rating, Barnyardgrass",[10]; [17],0
same,"Plant response rating, Barnyardgrass",[10]; [18],0
same,"Plant response rating, Barnyardgrass",[10]; [19],0
same,"Plant response rating, Barnyardgrass",[10]; [20],0
CCc1cc(-c2ccc(C(F)(F)F)cc2)nn1-c1c(OC(=O)C(C)(C)C)cnn(C)c1=O [Compound 18],"Plant response rating, Wheat",[1]; [21],70
same,"Plant response rating, Wheat",[1]; [22],80
same,"Plant response rating, Wheat",[1]; [23],90
same,"Plant response rating, Wheat",[1]; [24],100
same,"Plant response rating, Velvetleaf",[2]; [21],0
same,"Plant response rating, Velvetleaf",[2]; [22],0
same,"Plant response rating, Velvetleaf",[2]; [23],0
same,"Plant response rating, Velvetleaf",[2]; [24],0
same,"Plant response rating, Crabgrass, Large",[3]; [21],80
same,"Plant response rating, Crabgrass, Large",[3]; [22],100
same,"Plant response rating, Crabgrass, Large",[3]; [23],100
same,"Plant response rating, Crabgrass, Large",[3]; [24],100
same,"Plant response rating, Barnyardgrass",[4]; [21],90
same,"Plant response rating, Barnyardgrass",[4]; [22],100
same,"Plant response rating, Barnyardgrass",[4]; [23],100
same,"Plant response rating, Barnyardgrass",[4]; [24],100
same,"Plant response rating, Morningglory",[5]; [21],0
same,"Plant response rating, Morningglory",[5]; [22],0
same,"Plant response rating, Morningglory",[5]; [23],0
same,"Plant response rating, Morningglory",[5]; [24],0
same,"Plant response rating, Corn",corn (Zea mays); [21],80
same,"Plant response rating, Corn",corn (Zea mays); [22],90
same,"Plant response rating, Corn",corn (Zea mays); [23],90
same,"Plant response rating, Corn",corn (Zea mays); [24],90
same,"Plant response rating, Pigweed",[6]; [21],0
same,"Plant response rating, Pigweed",[6]; [22],0
same,"Plant response rating, Pigweed",[6]; [23],0
same,"Plant response rating, Pigweed",[6]; [24],0
same,"Plant response rating, Foxtail, Giant",[7]; [21],90
same,"Plant response rating, Foxtail, Giant",[7]; [22],100
same,"Plant response rating, Foxtail, Giant",[7]; [23],100
same,"Plant response rating, Foxtail, Giant",[7]; [24],100
